# Source: patent US20190038624A1 (priority 2017, published 2019)
# Like-named read-outs stand apart in the source and are kept apart here.
# System: patients with probable MSA
# Type: in vivo, human
# Conditions: average of five patients, oral 200 mg daily
# Procedure: Five patients fulfilled the consensus criteria for “probable MSA” and received oral Nilotinib 200 mg daily for 24 weeks. Disease progression was monitored every 4 weeks by measuring the patient's motor and non-motor symptoms with the Unified Multiple System Atrophy Rating Scale (UMSARS). Mini Mental State Examination (MMSE) was used to screen for cognitive impairment. […] However, these AEs resolved with continued administration of the drug. […] Furthermore, there was a significant decline of 6.8 and 2.2 points in the UMSARS and UMSARS-II, respectively, compared to baseline (see FIG. 2). MMSE results were normal throughout treatment.
structure (smiles),measurement,setting,value
Cc1cn(-c2cc(NC(=O)c3ccc(C)c(Nc4nccc(-c5cccnc5)n4)c3)cc(C(F)(F)F)c2)cn1 [Nilotinib],"UMSARS, Average",Week 4,52.6 points
same,"UMSARS-II, Average",Week 4,22.2 points
same,"UMSARS, Average",Week 8,52.4 points
same,"UMSARS-II, Average",Week 8,22.2 points
same,"UMSARS, Average",Week 12,50.8 points
same,"UMSARS-II, Average",Week 12,22 points
same,"UMSARS, Average",Week 16,49.4 points
same,"UMSARS-II, Average",Week 16,21.6 points
same,"UMSARS, Average",Week 20,47.8 points
same,"UMSARS-II, Average",Week 20,21.2 points
same,"UMSARS, Average",Week 24,46.6 points
same,"UMSARS-II, Average",Week 24,20.6 points
